Entries after “also recorded” stand apart in the source; their conditions may differ.
Target: T1, SIN3A Paired amphipathic helix protein Sin3a (Homo sapiens, UniProt Q96ST3)
T1 construct: isoTOP-ABPP experiments performed in cell lysates (in vitro); endogenous in cells; host or cells: soluble proteome of human cancer cell lines (MDA-MB-231; Ramos and Jurkat also prepared)
T1 sequence (Q96ST3 1-1273): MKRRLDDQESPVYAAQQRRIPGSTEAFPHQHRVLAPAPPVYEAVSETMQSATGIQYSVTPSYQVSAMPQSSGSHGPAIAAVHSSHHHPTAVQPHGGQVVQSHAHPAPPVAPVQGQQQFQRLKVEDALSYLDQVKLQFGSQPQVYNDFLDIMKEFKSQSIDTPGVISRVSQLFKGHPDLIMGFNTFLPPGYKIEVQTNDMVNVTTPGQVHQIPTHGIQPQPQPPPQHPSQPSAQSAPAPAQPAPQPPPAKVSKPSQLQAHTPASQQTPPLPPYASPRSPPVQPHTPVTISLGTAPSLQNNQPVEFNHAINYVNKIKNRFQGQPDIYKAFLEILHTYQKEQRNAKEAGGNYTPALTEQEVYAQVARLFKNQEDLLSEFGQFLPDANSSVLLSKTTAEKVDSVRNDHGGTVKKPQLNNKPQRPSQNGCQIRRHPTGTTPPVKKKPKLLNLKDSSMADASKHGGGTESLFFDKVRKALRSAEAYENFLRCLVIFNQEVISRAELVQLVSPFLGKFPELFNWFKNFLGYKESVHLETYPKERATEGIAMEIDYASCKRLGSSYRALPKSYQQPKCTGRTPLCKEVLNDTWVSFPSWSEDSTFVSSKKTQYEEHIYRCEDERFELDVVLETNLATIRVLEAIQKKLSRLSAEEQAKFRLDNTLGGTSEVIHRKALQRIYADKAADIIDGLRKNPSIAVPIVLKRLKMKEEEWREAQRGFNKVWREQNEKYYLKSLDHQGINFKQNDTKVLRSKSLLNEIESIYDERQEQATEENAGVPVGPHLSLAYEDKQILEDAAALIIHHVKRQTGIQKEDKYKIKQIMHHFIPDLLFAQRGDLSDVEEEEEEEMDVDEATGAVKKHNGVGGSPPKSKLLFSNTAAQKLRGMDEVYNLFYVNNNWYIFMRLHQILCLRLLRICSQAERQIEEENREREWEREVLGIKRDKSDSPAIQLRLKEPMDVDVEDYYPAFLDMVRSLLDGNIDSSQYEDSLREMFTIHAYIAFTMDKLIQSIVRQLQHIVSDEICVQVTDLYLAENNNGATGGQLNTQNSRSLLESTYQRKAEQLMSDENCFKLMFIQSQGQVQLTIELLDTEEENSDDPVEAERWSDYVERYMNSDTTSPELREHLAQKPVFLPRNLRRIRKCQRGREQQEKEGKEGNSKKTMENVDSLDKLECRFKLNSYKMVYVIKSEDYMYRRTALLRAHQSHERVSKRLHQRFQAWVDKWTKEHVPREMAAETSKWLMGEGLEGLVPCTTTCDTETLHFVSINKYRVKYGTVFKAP
Test: competitive isoTOP-ABPP
Format: binding
Settings: for R value (DMSO/fragment) for probe 1 labeling: Q96ST3_K155; for R value (DMSO/fragment) for probe 1 labeling / isoTOP-ABPP reactivity ratio at lysine Q96ST3_K155 / isoTOP-ABPP ratio (R) at liganded lysine Q96ST3_K155: 50 uM, in vitro; for R value (DMSO/fragment) for probe 1 labeling / isoTOP-ABPP reactivity ratio at lysine Q96ST3_K155: 231 sol; for isoTOP-ABPP ratio (R) at liganded lysine Q96ST3_K155: sol, 231; for isoTOP-ABPP ratio, lysine Q96ST3_K155: possible other lysine Q96ST3_K152
In short: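 Readout: isotopic light/heavy MS1 peak-area ratio (R, DMSO heavy over compound light), median across peptides sharing a modified lysine. Lysate received fragment (activated esters 50 μM, guanidinylating agents 100 μM final) or DMSO, then 0.1 mM STP-alkyne probe for 1 h at ambient temperature.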

Row | Structure (SMILES) | isoTOP-ABPP reactivity ratio at lysine Q96ST3_K155 | isoTOP-ABPP ratio (R) at liganded lysine Q96ST3_K155 | also measured
1 | O=C(CCc1cn(-c2ccccc2)nc1-c1ccccc1)Oc1c(F)c(F)c(F)c(F)c1F [fragment 19, Pentafluorophenyl 3-(1,3-diphenyl-1H-pyrazol-4-yl)propanoate] | – | – | R value (DMSO/fragment) for probe 1 labeling: 1.6
2 | O=C(Oc1c(F)c(F)c(F)c(F)c1F)C(c1ccccc1)c1ccccc1 [fragment 20, Pentafluorophenyl 2,2-diphenylacetate] | – | – | R value (DMSO/fragment) for probe 1 labeling: 1.2
3 | O=C(Oc1c(F)c(F)c(F)c(F)c1F)c1cc(C(F)(F)F)cc(C(F)(F)F)c1 [fragment 21, Pentafluorophenyl 3,5-bis(trifluoromethyl)benzoate] | – | – | R value (DMSO/fragment) for probe 1 labeling: 20.0; engagement of K155, competition of probe 1 labeling (SIN3A K155, 21 50 μM): engages K155 in SIN3A; also recorded: fully competes probe 1 labeling of K155
4 | Cn1cc(CC(=O)Oc2c(F)c(F)c(F)c(F)c2F)c2ccccc21 [fragment 22, Pentafluorophenyl 2-(1-methyl-1H-indol-3-yl)acetate] | – | – | R value (DMSO/fragment) for probe 1 labeling: 3.9
5 | COc1cc(CCC(=O)Oc2c(F)c(F)c(F)c(F)c2F)cc(OC)c1OC [fragment 23, Pentafluorophenyl 3-(3,4,5-trimethoxyphenyl)propanoate] | – | – | R value (DMSO/fragment) for probe 1 labeling: 4.1
6 | O=C(Oc1c(F)c(F)c(F)c(F)c1F)C1CCN(C(=O)OCc2ccccc2)CC1 [fragment 24, 1-Benzyl 4-(pentafluorophenyl) piperidine-1,4-dicarboxylate] | 1.1 | – | –
7 | O=C(Oc1c(F)c(F)c(F)c(F)c1F)c1ccc2ccccc2n1 [fragment 25, Pentafluorophenyl quinoline-2-carboxylate] | 11.1 | – | –
8 | O=C(CCc1coc2cc(F)ccc2c1=O)Oc1c(F)c(F)c(F)c(F)c1F [fragment 26, Pentafluorophenyl 3-(7-fluoro-4-oxo-4H-chromen-3-yl)propanoate] | 1.7 | – | –
9 | O=C(CN1C(=O)c2ccccc2C1=O)Oc1c(F)c(F)c(F)c(F)c1F [fragment 27, Pentafluorophenyl 2-(1,3-dioxoisoindolin-2-yl)acetate] | 11.7 | – | –
10 | CCn1cc(C(=O)Oc2c(F)c(F)c(F)c(F)c2F)c(=O)c2ccc(C)nc21 [fragment 28, Pentafluorophenyl 1-ethyl-7-methyl-4-oxo-1,4-dihydro-1,8-naphthyridine-3-carboxylate] | 4.9 | – | –
11 | O=C(CCc1cn(-c2ccccc2)nc1-c1ccccc1)Oc1ccc([N+](=O)[O-])cc1[N+](=O)[O-] [fragment 29, 2,4-Dinitrophenyl 3-(1,3-diphenyl-1H-pyrazol-4-yl)propanoate] | 1.5 | – | –
12 | O=C(Oc1ccc([N+](=O)[O-])cc1[N+](=O)[O-])C(c1ccccc1)c1ccccc1 [fragment 30, 2,4-Dinitrophenyl 2,2-diphenylacetate] | 20.0 | – | –
13 | O=C(Oc1ccc([N+](=O)[O-])cc1[N+](=O)[O-])c1cc(C(F)(F)F)cc(C(F)(F)F)c1 [fragment 31, 2,4-Dinitrophenyl 3,5-bis(trifluoromethyl)benzoate] | 18.6 | – | –
14 | Cn1cc(CC(=O)Oc2ccc([N+](=O)[O-])cc2[N+](=O)[O-])c2ccccc21 [fragment 32, 2,4-Dinitrophenyl 2-(1-methyl-1H-indol-3-yl)acetate] | 17.5 | – | –
15 | COc1cc(CCC(=O)Oc2ccc([N+](=O)[O-])cc2[N+](=O)[O-])cc(OC)c1OC [fragment 33, 2,4-Dinitrophenyl 3-(3,4,5-trimethoxyphenyl)propanoate] | 2.0 | – | –
16 | O=C(Oc1ccc([N+](=O)[O-])cc1[N+](=O)[O-])C1CCN(C(=O)OCc2ccccc2)CC1 [fragment 34, 1-Benzyl 4-(2,4-dinitrophenyl) piperidine-1,4-dicarboxylate] | – | 0.8 | –

Row | Structure (SMILES) | isoTOP-ABPP reactivity ratio at lysine Q96ST3_K155 | isoTOP-ABPP ratio (R) at liganded lysine Q96ST3_K155 | also measured
17 | O=C(Oc1ccc([N+](=O)[O-])cc1[N+](=O)[O-])c1ccc2ccccc2n1 [fragment 35, 2,4-Dinitrophenyl quinoline-2-carboxylate] | – | 1.6 | –
18 | O=C(CCc1coc2cc(F)ccc2c1=O)Oc1ccc([N+](=O)[O-])cc1[N+](=O)[O-] [fragment 36, 2,4-Dinitrophenyl 3-(7-fluoro-4-oxo-4H-chromen-3-yl)propanoate] | – | 1.4 | –
19 | O=C(Oc1ccc([N+](=O)[O-])cc1[N+](=O)[O-])c1ccc(-c2ccccc2)cc1 [fragment 37, 2,4-Dinitrophenyl [1,1′-biphenyl]-4-carboxylate] | – | 1.1 | –
20 | O=C(CC12CC3CC(CC(C3)C1)C2)Oc1ccc([N+](=O)[O-])cc1[N+](=O)[O-] [fragment 38, 2,4-Dinitrophenyl 2-(adamantan-1-yl)acetate] | – | 1.2 | –
21 | O=C(Oc1ccc([N+](=O)[O-])cc1[N+](=O)[O-])c1ccc(Oc2ccccc2)cc1 [fragment 39, 2,4-Dinitrophenyl 4-phenoxybenzoate] | – | 1.0 | –
22 | O=C(Oc1ccc([N+](=O)[O-])cc1[N+](=O)[O-])c1ccccc1Nc1cccc(C(F)(F)F)c1 [fragment 40, 2,4-Dinitrophenyl 2-((3-(trifluoromethyl)phenyl)amino)benzoate] | – | 1.1 | –
23 | CC(C)(C)OC(=O)NCCCC(=O)Oc1ccc([N+](=O)[O-])cc1[N+](=O)[O-] [fragment 41, 2,4-Dinitrophenyl 4-((tert-butoxycarbonyl)amino)butanoate] | – | 1.3 | –
24 | O=C(Oc1ccc([N+](=O)[O-])cc1[N+](=O)[O-])C(c1ccccc1)(c1ccccc1)c1ccccc1 [fragment 42, 2,4-Dinitrophenyl 2,2,2-triphenylacetate] | – | 0.9 | –
25 | CC(=O)Oc1ccc([N+](=O)[O-])cc1[N+](=O)[O-] [fragment 43, 2,4-Dinitrophenyl acetate] | – | 1.2 | –
26 | N#Cc1ccc(C(=O)Oc2ccc([N+](=O)[O-])cc2[N+](=O)[O-])cc1 [fragment 44, 2,4-Dinitrophenyl 4-cyanobenzoate] | – | – | isoTOP-ABPP ratio, lysine Q96ST3_K155 (50 uM_231_sol_in vitro): 1.5
27 | O=C(CCc1ccc2c(c1)OCO2)Oc1ccc([N+](=O)[O-])cc1[N+](=O)[O-] [fragment 45, 2,4-Dinitrophenyl 3-(benzo[d][1,3]dioxol-5-yl)propanoate] | – | – | isoTOP-ABPP ratio, lysine Q96ST3_K155 (50 uM_231_sol_in vitro): 1.5
28 | O=C(ON1C(=O)CCC1=O)c1cc(C(F)(F)F)cc(C(F)(F)F)c1 [fragment 46, 3,5-Bis(trifluoromethyl)benzoic acid NHS ester] | – | – | isoTOP-ABPP ratio, lysine Q96ST3_K155 (50 uM_231_sol_in vitro): 4.4
29 | O=C(Oc1c(F)c(F)c(C(F)(F)F)c(F)c1F)c1cc(C(F)(F)F)cc(C(F)(F)F)c1 [fragment 47, 2,3,5,6-Tetrafluoro-4-(trifluoromethyl)phenyl 3,5-bis(trifluoromethyl)benzoate] | – | – | isoTOP-ABPP ratio, lysine Q96ST3_K155 (50 uM_231_sol_in vitro): 1.8
30 | O=C(Oc1c(F)c(F)cc(F)c1F)c1cc(C(F)(F)F)cc(C(F)(F)F)c1 [fragment 48, 2,3,5,6-Tetrafluorophenyl 3,5-bis(trifluoromethyl)benzoate] | – | – | isoTOP-ABPP ratio, lysine Q96ST3_K155 (50 uM_231_sol_in vitro): 20.0
31 | CC(C)(C)OC(=O)N=C(NC(=O)OC(C)(C)C)n1cccn1 [fragment 50, reference compound] | – | – | isoTOP-ABPP ratio, lysine Q96ST3_K155 (100 uM_231_sol_in vitro): 3.5
32 | NC(=O)c1cc(C(F)(F)F)cc(C(F)(F)F)c1 [fragment 51, reference compound] | – | – | isoTOP-ABPP ratio, lysine Q96ST3_K155 (50 uM_231_sol_in vitro): 1.1
